According to US20130189366A1, “DRUG DELIVERY SYSTEMS AND METHODS OF USE” (Brown University, priority 2012, published 2013):
Where a name gives a salt, the structure may show the parent alone.

Assays:
CHO-K1 Tet-IGF1 cells = assay: Co-culture of CHO-K1 Tet-IGF1 cells with DOX loaded PLGA microspheres or bolus DOX, IGF-1 ELISA; assay type: cell-based, Chinese hamster; conditions: total 2 μg DOX over 24 hours, unencapsulated and encapsulated cultures
Description: Cells were encapsulated and encapsulated cell count and viability were determined as described in Examples 1 and 2. Microencapsulated and unencapsulated CHO-K1 Tet-IGF1 cells were co-cultured with DOX loaded PLGA microspheres to assess DOX-inducible IGF-1 synthesis and delivery. Approximately 5×10^5 encapsulated or 5×10^4 unencapsulated cells were plated per well in 12-well plates. After incubating cultures for 24 hours at 37° C., medium was completely removed from each well and 2 mL fresh media containing one of the following was added to each well (n=3): 1 μg/mL DOX (Clontech), 1.6 mg of DOX loaded PLGA microspheres, 1.6 mg of unloaded PLGA control microspheres, or no DOX. The mass of spheres used in these studies was calculated to release a total of 2 μg of DOX after 24 hours of incubation as determined by the results of the cumulative in vitro release. Cultures were incubated for another 24 hours, at which time the supernatant from each culture was removed and stored at −20° C. for later measurement. For unencapsulated cultures, cells were trypsinized and counted using Trypan Blue exclusion. For encapsulated cultures, cells were collected via alginate solubilization prior to counting. IGF-1 was quantified as described in Example 2.

[1] = test system: tetracycline inducible gene expression system (CHO-K1 Tet-IGF1 cells); assay: DOX-induced IGF-1 release from CHO-K1 Tet-IGF1 cells (ELISA); assay type: cell-based, Chinese hamster; conditions: encapsulated and unencapsulated CHO-K1 Tet-IGF1 cells, 24 hours
Description: Chinese hamster ovary cells (CHO-K1 Tet-On, Clontech Laboratories, Mountain View, Calif.), stably transfected to express the transactivator protein (rtTA) for a tetracycline inducible gene expression system, were cultured at 37° C. and 5% CO2 in DMEM supplemented with 10% tetracycline-free FBS (Clontech), 1% penicillin/streptomycin (Invitrogen, Carlsbad, Calif.), and 200 μg/mL G418 (Sigma-Aldrich). All cell counting was done using Trypan Blue exclusion and the COUNTESS® Automated Cell Counter (Invitrogen). […]
The quantity of human IGF-1 from each supernatant sample was determined using ELISA (R&D Systems, Minneapolis, Minn.) and SPECTRAMAX® Absorbance plate reader (Molecular Devices, Sunnydale, Calif.). All samples were run in triplicate and amount released was normalized to one million viable cells per sample as counted at the end of each study.
Modified and unmodified cells were plated in 6-well tissue culture plates at a density of 3×10^5 cells per well (n=6 per cell type). […] At the end of the study, cells were trypsinized and counted.
Modified encapsulated and unencapsulated cells were plated into 12-well tissue culture plates. […] At the end of the study, cells were trypsinized and counted.
Encapsulated modified and unmodified cells were plated in 12-well tissue culture plates at an equal density per well and cultured at 32° C. […] On day 10, capsules were solubilized and cells were counted.

For `C[C@H]1c2cccc(O)c2C(=O)C2=C(O)[C@]3(O)C(=O)C(C(N)=O)=C(O)[C@@H](N(C)C)[C@@H]3[C@@H](O)[C@@H]21` [DOX, doxycycline hydrochloride], the “IGF-1 synthesis and delivery after 24 hours” value (CHO-K1 Tet-IGF1 cells) was “induced” and the “DOX concentration giving detectable IGF-1 release” value [1] was no less than 0.125 µg/mL.
